Values of other authors in US20080286208A1, “Eye treatment” (priority 2001, published 2008).
Entries after “also recorded” stand apart in the source; their conditions may differ. Like-named read-outs stand apart in the source and are kept apart here.

Test system: eye
Conditions: for Stinging when applied to the eye: applied to the eye in suitable dosage

Stinging when applied to the eye (listed as Rose bengal)	SMILES	Stinging when applied to the eye	Toxicity to the eye (post instillation)
	CN(C)c1ccc(C(=C2C=CC(=[N+](C)C)C=C2)c2c(O)c(S(=O)(=O)[O-])cc3cc(S(=O)(=O)[O-])ccc23)cc1.[Na+] [Lissamine green]	without the disadvantages of toxicity and sting potential; also recorded: does not induce stinging; also recorded: does not significantly sting	
has a sting potential	O=C([O-])c1c(Cl)c(Cl)c(Cl)c(Cl)c1-c1c2cc(I)c(=O)c(I)c-2oc2c(I)c([O-])c(I)cc12.[Na+].[Na+] [rose bengal]	may result in stinging and pain to an extent that can be disabling for hours post instillation; also recorded: may produce dose related stinging; also recorded: has been found to sting	known to be toxic
